Source: ChEMBL document CHEMBL5620397, “Design, synthesis and biological evaluation of 3-substituted-2-thioxothiazolidin-4-one (rhodanine) derivatives as antitubercular agents against Mycobacterium tuberculosis protein tyrosine phosphatase B” (Eur J Med Chem, 2023)
Converted amounts (≈) assume the structure as drawn.

Tests used:
[1] = biological target: T1, Triple specificity protein phosphatase PtpB (Mycobacterium tuberculosis (strain ATCC 25618 / H37Rv), UniProt I6WXK4); assay: Inhibition of Mycobacterium tuberculosis H37Rv ptpB expressed in Escherichia coli BL21(DE3) using pNPP as substrate preincubated for 10 mins followed by substrate addition and measured for 5 mins by spectrophotometer analysis
T1 sequence (I6WXK4 whole entry): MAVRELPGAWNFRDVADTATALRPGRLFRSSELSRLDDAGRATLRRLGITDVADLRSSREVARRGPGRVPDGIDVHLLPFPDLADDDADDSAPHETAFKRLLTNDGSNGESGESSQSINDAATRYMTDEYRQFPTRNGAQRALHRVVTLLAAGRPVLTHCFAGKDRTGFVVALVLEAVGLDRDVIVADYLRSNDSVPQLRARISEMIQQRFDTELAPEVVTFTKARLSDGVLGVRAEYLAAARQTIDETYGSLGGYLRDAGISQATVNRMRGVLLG

[2] = biological target: T2, Tyrosine-protein phosphatase non-receptor type 1 (Homo sapiens, UniProt P18031); assay: Inhibition of recombinant human PTP1B using pNPP as substrate preincubated for 5 mins followed by substrate addition and measured for 10 mins; format: toxicity
T2 sequence (P18031 whole entry): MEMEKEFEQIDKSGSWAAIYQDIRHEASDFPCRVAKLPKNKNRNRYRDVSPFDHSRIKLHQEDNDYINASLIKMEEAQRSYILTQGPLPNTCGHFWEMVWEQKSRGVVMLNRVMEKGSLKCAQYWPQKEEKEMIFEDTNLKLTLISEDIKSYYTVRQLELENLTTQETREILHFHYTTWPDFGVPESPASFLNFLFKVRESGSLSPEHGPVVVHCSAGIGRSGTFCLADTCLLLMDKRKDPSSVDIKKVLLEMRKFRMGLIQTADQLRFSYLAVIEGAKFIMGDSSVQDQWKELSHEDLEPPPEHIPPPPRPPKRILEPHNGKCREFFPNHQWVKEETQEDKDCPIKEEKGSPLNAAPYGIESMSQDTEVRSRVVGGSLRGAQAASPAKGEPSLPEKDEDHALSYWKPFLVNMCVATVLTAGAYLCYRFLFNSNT

[3] = biological target: T3, Triple specificity protein phosphatase PtpB (Mycobacterium tuberculosis (strain ATCC 25618 / H37Rv)) (UniProt I6WXK4); assay: Inhibition of Mycobacterium tuberculosis H37Rv ptpB expressed in Escherichia coli BL21(DE3) at 50 uM using pNPP as substrate preincubated for 10 mins followed by substrate addition and measured for 5 mins by spectrophotometer analysis relative to control; settings: time 15.0 min
T3 sequence (whole entry): T1 sequence (I6WXK4 whole entry)

[4] = Metabolic stability in human liver microsomes assessed as half life preincubated for 5 mins followed by NADPH addition and measured upto 30 mins by LC-MS/MS assay; format: ADME, Microsome; settings: time < 35 min
[5] = biological target: T4, Low molecular weight protein-tyrosine phosphatase A (Mycobacterium tuberculosis) (UniProt P9WIA1); assay: Inhibition of Mycobacterium tuberculosis H37Rv ptpA expressed in Escherichia coli BL21(DE3) at 10 uM using pNPP as substrate preincubated for 10 mins followed by substrate addition and measured for 5 mins by spectrophotometer analysis relative to control; settings: time 15.0 min
T4 sequence (whole entry): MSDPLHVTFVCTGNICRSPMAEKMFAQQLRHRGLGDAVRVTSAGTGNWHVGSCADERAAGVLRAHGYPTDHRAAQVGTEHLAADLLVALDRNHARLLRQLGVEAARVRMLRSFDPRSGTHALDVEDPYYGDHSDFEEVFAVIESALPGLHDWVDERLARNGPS

[6] = Metabolic stability in mouse liver microsomes assessed as intrinsic clearance per mg protein preincubated for 5 mins followed by NADPH addition and measured upto 30 mins by LC-MS/MS assay; format: ADME, Microsome; settings: time < 35 min, read-out: CLH
[7] = Metabolic stability in mouse liver microsomes assessed as substrate remaining preincubated for 5 mins followed by NADPH addition and measured upto 30 mins by LC-MS/MS assay; format: ADME, Microsome; settings: time < 35 min, read-out: Stability
[8] = Metabolic stability in mouse liver microsomes in absence of NADPH by LC-MS/MS assay; format: ADME, Microsome
[9] = Metabolic stability in mouse liver microsomes assessed as half life preincubated for 5 mins followed by NADPH addition and measured upto 30 mins by LC-MS/MS assay; format: ADME, Microsome; settings: time < 35 min
[10] = test system: Vero; assay: cells; settings: Chlorocebus sabaeus, 48 h
Description: Cytotoxicity against african green monkey Vero cells after 48 hrs by MTT assay

[11] = Metabolic stability in human liver microsomes in absence of NADPH by LC-MS/MS assay; format: ADME, Microsome
[12] = Metabolic stability in human liver microsomes assessed as substrate remaining preincubated for 5 mins followed by NADPH addition and measured upto 30 mins by LC-MS/MS assay; format: ADME, Microsome; settings: time < 35 min, read-out: Stability
[13] = Metabolic stability in human liver microsomes assessed as intrinsic clearance per mg protein preincubated for 5 mins followed by NADPH addition and measured upto 30 mins by LC-MS/MS assay; format: ADME, Microsome; settings: time < 35 min, read-out: CLH
[14] = Cytotoxicity against mouse J774.G8 cells after 48 hrs by MTT assay; format: functional, cell-based; settings: J774.G8, 48 h
[15] = test system: PTP1B versus M. tuberculosis ptpB; assay: Selectivity index, ratio of IC50 for human PTP1B to Mycobacterium tuberculosis H37Rv ptpB; format: toxicity; settings: read-out: Ratio IC50
[16] = test system: Mycobacterium tuberculosis; assay: Antituberculosis activity against Mycobacterium tuberculosis H37Rv by microplate alamar blue assay; format: functional
[17] = test system: Mycobacterium tuberculosis; assay: Antituberculosis activity against Mycobacterium tuberculosis H37Rv in mouse J774A.1 cells assessed as reduction in intracellular bacterial burden measured after 21 days by agar plate method; format: functional, organism-based; settings: J774.A1, dose 1-10 µg/ml, time 21.0 day
[18] = biological target: T3, Triple specificity protein phosphatase PtpB (Mycobacterium tuberculosis (strain ATCC 25618 / H37Rv)); assay: Inhibition of Mycobacterium tuberculosis H37Rv ptpB expressed in Escherichia coli BL21(DE3) at 10 uM using pNPP as substrate preincubated for 10 mins followed by substrate addition and measured for 5 mins by spectrophotometer analysis relative to control; settings: time 15.0 min

SMILES	IC50 [1]	IC50 [2]	inhibition [3]	further results
O=C(O)[C@H](C1CCCCC1)N1C(=O)/C(=C/c2ccc(-c3cccc(Cl)c3)cc2)SC1=S	990 nM	1120 nM	106%	–
O=C(O)[C@H](C1CCCCC1)N1C(=O)/C(=C/c2ccc(-c3ccc(C(F)(F)F)cc3)cc2)SC1=S	3130 nM	–	103%	–
CCCC[C@@H](C(=O)O)N1C(=O)/C(=C/c2ccc(-c3ccc(F)c(C(F)(F)F)c3)cc2)SC1=S	480 nM	11300 nM	106%	half-life [4]: > 1.55 h; inhibition [5]: 20.2%; microsomal CLint [6]: < 22.1 µL/min/mg; remaining at 0.5 h [7]: 101%; Stability [8]: Stable; half-life [9]: > 1.55 h; IC50 [10]: 28.2 µg/mL (≈ 56.7 µM); Stability [11]: Stable; remaining at 0.5 h [12]: 96.9%; microsomal CLint [13]: < 6.1 µL/min/mg; IC50 [14]: 47.7 µg/mL (≈ 95.9 µM); selectivity ratio [15]: 20; MIC [16]: 31.7 µg/mL (≈ 63.7 µM); Activity [17]: Dose-Dependent Effect
CCCC[C@@H](C(=O)O)N1C(=O)/C(=C/c2ccc(-c3cccc(Cl)c3)c(Cl)c2)SC1=S	330 nM	940 nM	–	inhibition [18]: 102%
CCCC[C@@H](C(=O)O)N1C(=O)/C(=C/c2ccc(-c3ccncc3Cl)cc2)SC1=S	800 nM	–	97.1%	–
O=C(O)CN1C(=O)/C(=C/c2ccc(-c3ccc(F)c(C(F)(F)F)c3)cc2)SC1=S	16400 nM	–	99.4%	–
CCN(CC)c1ccc(/C=C2\SC(=S)NC2=O)c(OCc2ccc(Cl)cc2Cl)c1	–	–	> 35%	–
NNC(=O)c1ccncc1 [ISONIAZID]	–	–	–	IC50 [10]: > 64 µg/mL; IC50 [14]: > 64 µg/mL; MIC [16]: 0.038 µg/mL (≈ 0.277 µM)
CCCC[C@@H](C(=O)O)N1C(=O)/C(=C/c2ccc(-c3cccc(OC)c3)cc2)SC1=S	750 nM	430 nM	100%	–
CCCC[C@@H](C(=O)O)N1C(=O)/C(=C/c2ccc(-c3ccc(F)c(C(F)(F)F)c3)c3ccccc23)SC1=S	670 nM	5540 nM	–	inhibition [18]: 105%
O=C(O)[C@H](C1CCCCC1)N1C(=O)/C(=C/c2ccc(-c3ccccc3C(F)(F)F)cc2)SC1=S	920 nM	1600 nM	93%	–
CCCC[C@@H](C(=O)O)N1C(=O)/C(=C/c2ccc(-c3cccc(Cl)c3)s2)SC1=S	440 nM	160 nM	–	inhibition [18]: 99%
O=C(O)[C@H](C1CCCCC1)N1C(=O)/C(=C/c2ccc(-c3ccc(F)c(C(F)(F)F)c3)cc2)SC1=S	490 nM	5370 nM	101%	half-life [4]: > 1.55 h; inhibition [5]: 27.1%; microsomal CLint [6]: < 22.1 µL/min/mg; remaining at 0.5 h [7]: 101%; Stability [8]: Stable; half-life [9]: > 1.55 h; IC50 [10]: 30.2 µg/mL (≈ 57.7 µM); Stability [11]: Stable; remaining at 0.5 h [12]: 101%; microsomal CLint [13]: < 6.1 µL/min/mg; IC50 [14]: > 64 µg/mL; MIC [16]: 30.5 µg/mL (≈ 58.3 µM); Activity [17]: Dose-Dependent Effect
O=C(O)[C@H](Cc1ccccc1)N1C(=O)/C(=C/c2ccc(-c3ccc(F)c(C(F)(F)F)c3)cc2)SC1=S	920 nM	–	71.3%	–
CCCC[C@@H](C(=O)O)N1C(=O)/C(=C/c2ccc(-c3ccccc3)cc2)SC1=S	620 nM	–	94%	–
CCCC[C@@H](C(=O)O)N1C(=O)/C(=C/c2ccc(-c3cccc(C(F)(F)F)c3)c(Cl)c2)SC1=S	420 nM	1530 nM	–	inhibition [18]: 99.6%
CCCC[C@@H](C(=O)O)N1C(=O)/C(=C/c2ccc(-c3ccc(Cl)s3)cc2)SC1=S	430 nM	200 nM	98.4%	–
O=C(O)[C@H](c1ccccc1)N1C(=O)/C(=C/c2ccc(-c3ccc(F)c(C(F)(F)F)c3)cc2)SC1=S	2340 nM	–	97%	–
CCCC[C@@H](C(=O)O)N1C(=O)/C(=C/c2ccc(-c3cccc(Cl)c3)c3ccccc23)SC1=S	670 nM	1530 nM	–	inhibition [18]: 99.9%
O=C(O)[C@@H](C1CCCCC1)N1C(=O)/C(=C/c2ccc(-c3ccc(F)c(C(F)(F)F)c3)cc2)SC1=S	–	–	30.5%	–
CCCC[C@@H](C(=O)O)N1C(=O)/C(=C/c2ccc(-c3ccc(C(F)(F)F)cc3)cc2)SC1=S	860 nM	1340 nM	100%	–
CCCC[C@@H](C(=O)O)N1C(=O)/C(=C/c2ccc(-c3cccc(Cl)c3)cc2)SC1=S	380 nM	1870 nM	102%	selectivity ratio [15]: 5
CCCC[C@@H](C(=O)O)N1C(=O)/C(=C/c2ccc(-c3ccc(OC)cc3)cc2)SC1=S	550 nM	770 nM	99.4%	–
CCCC[C@@H](C(=O)O)N1C(=O)/C(=C/c2ccc(-c3cccc(Cl)c3)cn2)SC1=S	530 nM	390 nM	–	inhibition [18]: 99.5%
CCCC[C@H](C(=O)O)N1C(=O)/C(=C/c2ccc(-c3ccc(F)c(C(F)(F)F)c3)cc2)SC1=S	–	–	26.4%	–
CCCC[C@@H](C(=O)O)N1C(=O)/C(=C/c2ccc(-c3cccc(C(F)(F)F)c3)c3ccccc23)SC1=S	590 nM	40 nM	–	inhibition [18]: 98.6%
CCCC[C@@H](C(=O)O)N1C(=O)/C(=C/c2ccc(-c3ccc(Cl)cc3)cc2)SC1=S	600 nM	1510 nM	98.9%	–
O=C(O)[C@@H](Cc1ccccc1)N1C(=O)/C(=C/c2ccc(-c3ccc(F)c(C(F)(F)F)c3)cc2)SC1=S	–	–	56.8%	–
